According to article PMC4186417 (Pharmacology Research & Perspectives, 2014):

Target: T1, EP1 receptor (Mus musculus, UniProt P35375)
T1 sequence (P35375 1-405): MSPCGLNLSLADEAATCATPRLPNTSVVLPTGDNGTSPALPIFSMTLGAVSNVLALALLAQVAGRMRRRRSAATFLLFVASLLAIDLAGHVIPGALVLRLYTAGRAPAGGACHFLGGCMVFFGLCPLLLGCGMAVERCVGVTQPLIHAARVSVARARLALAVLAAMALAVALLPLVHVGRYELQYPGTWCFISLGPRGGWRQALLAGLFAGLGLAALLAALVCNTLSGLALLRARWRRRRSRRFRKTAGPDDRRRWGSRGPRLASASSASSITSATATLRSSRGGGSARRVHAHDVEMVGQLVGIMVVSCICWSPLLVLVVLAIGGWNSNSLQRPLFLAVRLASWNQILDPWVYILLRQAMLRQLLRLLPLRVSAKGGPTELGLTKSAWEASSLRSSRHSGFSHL
Test: Fura-2 intracellular Ca2+ dose-response in EP1-HEK cells
Format: cell-based

An EC50 of 12.8 nM was found for `CCCCC[C@H](O)/C=C/[C@H]1[C@H](O)CC(=O)[C@@H]1C/C=C\CCCC(=O)O` [PGE2] in this work.
